Values joined by “and” are separate entries in the source; they are usually repeats but may differ in a detail not shown here. Equal values may be shown once. Inconclusive results and toxic doses are left out.
Test system: BDF1 mice, P815 leukemia ip, survival T/C
Assay: NCI In Vivo Anticancer Drug Screen. Data for tumor model P815 Mast Cell Leukemia (Ascitic) (intraperitoneal) in B6D2F1 (BDF1) mice
Details: higher = longer survival
Procedure: The antitumor activity of compounds was measured in mice bearing transplantable tumors. Survival or tumor size were measured and the results are expressed as the measurement made in the treated group (T) divided by the measurement made in the vehicle treated control group (C). The tumor model used in this assay is P815 Mast Cell Leukemia (Ascitic) (intraperitoneal) in B6D2F1 (BDF1) mice

[1] = endpoint: survival time, mean or median, dose: 5.0 mg/kg/injection, schedule: Q01DX010 (ip), vehicle: saline
[2] = endpoint: survival time, mean or median, dose: 10.0 mg/kg/injection, schedule: Q01DX010 (ip), vehicle: saline
[3] = endpoint: survival time, mean or median, dose: 25.0 mg/kg/injection, schedule: Q01DX010 (ip), vehicle: saline
[4] = endpoint: survival time, mean or median, dose: 50.0 mg/kg/injection, schedule: Q01DX010 (ip), vehicle: saline
[5] = endpoint: survival time, mean or median, dose: 2.0 mg/kg/injection, schedule: Q01DX010 (ip), vehicle: saline
[6] = endpoint: survival time, mean or median, dose: 4.0 mg/kg/injection, schedule: Q01DX010 (ip), vehicle: saline
[7] = endpoint: survival time, mean or median, dose: 6.25 mg/kg/injection, schedule: Q01DX010 (ip), vehicle: saline
[8] = endpoint: survival time, mean or median, dose: 12.5 mg/kg/injection, schedule: Q01DX010 (ip), vehicle: saline
[9] = endpoint: survival time, mean or median, dose: 100.0 mg/kg/injection, schedule: Q01DX010 (ip), vehicle: saline
[10] = endpoint: survival time, mean or median, dose: 200.0 mg/kg/injection, schedule: Q01DX010 (ip), vehicle: saline
[11] = endpoint: survival time, mean or median, dose: 62.5 mg/kg/injection, schedule: Q01DX010 (ip), vehicle: saline
[12] = endpoint: survival time, mean or median, dose: 125.0 mg/kg/injection, schedule: Q01DX010 (ip), vehicle: saline
[13] = endpoint: survival time, mean or median, dose: 250.0 mg/kg/injection, schedule: Q01DX010 (ip), vehicle: saline

## CC(=O)O[C@]1(C(C)=O)CC[C@H]2[C@@H]3C[C@H](C)C4=CC(=O)C=C[C@]4(C)[C@@]3(F)[C@@H](O)C[C@@]21C
endpoint: survival time, mean or median, dose: 3.13 mg/kg/injection, schedule: Q01DX010 (sc), vehicle: steriod suspending solution
  T/C: 100 % of control
endpoint: survival time, mean or median, dose: 6.25 mg/kg/injection, schedule: Q01DX010 (sc), vehicle: steriod suspending solution
  T/C: 100 % of control
endpoint: survival time, mean or median, dose: 12.5 mg/kg/injection, schedule: Q01DX010 (sc), vehicle: steriod suspending solution
  T/C: 100 % of control and 106 % of control
endpoint: survival time, mean or median, dose: 25.0 mg/kg/injection, schedule: Q01DX010 (sc), vehicle: steriod suspending solution
  T/C: 100 % of control
endpoint: survival time, mean or median, dose: 100.0 mg/kg/injection, schedule: Q01DX010 (sc), vehicle: steriod suspending solution
  T/C: 93 % of control

## N#[N+]c1cnc([O-])[nH]c1=O
endpoint: survival time, mean or median, dose: 1.25 mg/kg/injection, schedule: Q01DX010 (ip), vehicle: saline
  T/C: 150 % of control
endpoint: survival time, mean or median, dose: 2.5 mg/kg/injection, schedule: Q01DX010 (ip), vehicle: saline
  T/C: 205 % of control
[1]
  T/C: 215 % of control and 150 % of control
[2]
  T/C: 205 % of control and 161 % of control

## CCN(CC)CCNc1ccc(C)c2sc3ccccc3c(=O)c12
[3]
  T/C: 107 % of control and 113 % of control
[4]
  T/C: 118 % of control and 123 % of control

## CS(=O)(=O)OCCN(CCOS(C)(=O)=O)c1ccc(N=O)cc1
endpoint: survival time, mean or median, dose: 1.0 mg/kg/injection, schedule: Q01DX010 (ip), vehicle: saline
  T/C: 161 % of control
[5]
  T/C: 115 % of control
[6]
  T/C: 100 % of control

## C=CC(CN1CC1)OC(C)=O (configuration not stated)
[5]
  T/C: 94 % of control
[6]
  T/C: 100 % of control
endpoint: survival time, mean or median, dose: 8.0 mg/kg/injection, schedule: Q01DX010 (ip), vehicle: saline
  T/C: 100 % of control

## CCCNc1ncnc2[nH]ncc12
endpoint: survival time, mean or median, dose: 3.13 mg/kg/injection, schedule: Q01DX010 (ip), vehicle: saline
  T/C: 95 % of control and 104 % of control
[7]
  T/C: 100 % of control and 116 % of control
[8]
  T/C: 95 % of control and 100 % of control
[3]
  T/C: 95 % of control

## Clc1ncnc2nc[nH]c12
endpoint: survival time, mean or median, dose: 7.5 mg/kg/injection, schedule: Q01DX010 (ip), vehicle: saline
  T/C: 100 % of control
endpoint: survival time, mean or median, dose: 9.5 mg/kg/injection, schedule: Q01DX010 (ip), vehicle: saline
  T/C: 100 % of control
endpoint: survival time, mean or median, dose: 15.0 mg/kg/injection, schedule: Q01DX010 (ip), vehicle: saline
  T/C: 100 % of control
endpoint: survival time, mean or median, dose: 30.0 mg/kg/injection, schedule: Q01DX010 (ip), vehicle: saline
  T/C: 100 % of control
endpoint: survival time, mean or median, dose: 60.0 mg/kg/injection, schedule: Q01DX010 (ip), vehicle: saline
  T/C: 104 % of control and 109 % of control

## CN(C)[C@@H]1C(=O)C(C(N)=O)=C(O)[C@@]2(O)C(=O)C3=C(O)c4c(O)cccc4C[C@H]3C[C@@H]12
endpoint: survival time, mean or median, dose: 30.0 mg/kg/injection, schedule: Q01DX015 (ip), vehicle: alkali diluted with saline
  T/C: 117 % of control

## Cc1cc2nc3c(=O)[nH]c(=O)nc-3n(CC(O)C(O)C(O)C(O)CO)c2cc1C (configuration not stated)
[4]
  T/C: 100 % of control
[9]
  T/C: 100 % of control
[10]
  T/C: 88 % of control and 100 % of control
endpoint: survival time, mean or median, dose: 400.0 mg/kg/injection, schedule: Q01DX010 (ip), vehicle: saline
  T/C: 88 % of control

## CS(=O)(=O)OCCCCOS(C)(=O)=O
[7]
  T/C: 104 % of control and 118 % of control
[8]
  T/C: 86 % of control
[3]
  T/C: 86 % of control and 95 % of control
[4]
  T/C: 86 % of control and 95 % of control

## COc1ccc(C[n+]2cc([O-])on2)cc1
endpoint: survival time, mean or median, dose: 12.5 mg/kg/injection, schedule: Q01DX015 (ip), vehicle: carboxymethylcellulose (CMC)
  T/C: 111 % of control
endpoint: survival time, mean or median, dose: 25.0 mg/kg/injection, schedule: Q01DX015 (ip), vehicle: carboxymethylcellulose (CMC)
  T/C: 114 % of control
endpoint: survival time, mean or median, dose: 100.0 mg/kg/injection, schedule: Q01DX015 (ip), vehicle: carboxymethylcellulose (CMC)
  T/C: 107 % of control

## O=CCC(O)C(O)C(O)CO (configuration not stated)
[11]
  T/C: 94 % of control and 97 % of control
[12]
  T/C: 97 % of control and 105 % of control
[13]
  T/C: 105 % of control and 107 % of control
endpoint: survival time, mean or median, dose: 500.0 mg/kg/injection, schedule: Q01DX010 (ip), vehicle: saline
  T/C: 102 % of control

## CN(C)c1ccc(/C=C\c2ccnc3ccccc23)cc1
endpoint: survival time, mean or median, dose: 1.5 mg/kg/injection, schedule: Q01DX010 (ip), vehicle: saline
  T/C: 90 % of control
endpoint: survival time, mean or median, dose: 3.0 mg/kg/injection, schedule: Q01DX010 (ip), vehicle: saline
  T/C: 90 % of control
endpoint: survival time, mean or median, dose: 6.0 mg/kg/injection, schedule: Q01DX010 (ip), vehicle: saline
  T/C: 90 % of control
endpoint: survival time, mean or median, dose: 12.0 mg/kg/injection, schedule: Q01DX010 (ip), vehicle: saline
  T/C: 90 % of control

## O=C(O)CC(NC(=O)CP(=O)(O)O)C(=O)O (configuration not stated)
endpoint: median survival time, dose: 62.2 mg/kg/injection, schedule: Q04DX003 (ip), vehicle: saline
  T/C: 99 % of control
endpoint: median survival time, dose: 104.0 mg/kg/injection, schedule: Q04DX003 (ip), vehicle: saline
  T/C: 99 % of control
endpoint: median survival time, dose: 173.0 mg/kg/injection, schedule: Q04DX003 (ip), vehicle: saline
  T/C: 97 % of control
endpoint: median survival time, dose: 288.0 mg/kg/injection, schedule: Q04DX003 (ip), vehicle: saline
  T/C: 107 % of control
endpoint: median survival time, dose: 480.0 mg/kg/injection, schedule: Q04DX003 (ip), vehicle: saline
  T/C: 92 % of control

## CC(=O)Nc1ccc(/C=N/Nc2ccc([N+](=O)[O-])cn2)cc1
endpoint: survival time, mean or median, dose: 31.3 mg/kg/injection, schedule: Q01DX010 (ip), vehicle: saline
  T/C: 100 % of control
[11]
  T/C: 100 % of control
[12]
  T/C: 100 % of control
[13]
  T/C: 88 % of control

## CSc1ncnc2nc[nH]c12
[3]
  T/C: 100 % of control
[4]
  T/C: 100 % of control and 115 % of control
[9]
  T/C: 100 % of control and 105 % of control
[10]
  T/C: 105 % of control and 110 % of control

## Nc1nc(N)c2nc(CNc3ccc(C(=O)NC(CCC(=O)O)C(=O)O)cc3)cnc2n1 (configuration not stated)
endpoint: survival time, mean or median, dose: 0.03 mg/kg/injection, schedule: Q01DX010 (ip), vehicle: other
  T/C: 102 % of control and 105 % of control
endpoint: survival time, mean or median, dose: 0.05 mg/kg/injection, schedule: Q01DX010 (ip), vehicle: other
  T/C: 100 % of control and 102 % of control
endpoint: survival time, mean or median, dose: 0.1 mg/kg/injection, schedule: Q01DX010 (ip), vehicle: other
  T/C: 100 % of control and 108 % of control
endpoint: survival time, mean or median, dose: 0.2 mg/kg/injection, schedule: Q01DX010 (ip), vehicle: other
  T/C: 105 % of control and 108 % of control

## O=C(Nc1ccc(NC2=NCCN2)cc1)c1ccc(C(=O)Nc2ccc(NC3=NCCN3)cc2)cc1
[5]
  T/C: 110 % of control and 111 % of control
[6]
  T/C: 105 % of control and 113 % of control

## O=C(Nc1ccc(C2=NCCN2)cc1)c1ccc(C(=O)Nc2ccc(C3=NCCN3)cc2)c(Cl)c1
endpoint: survival time, mean or median, dose: 1.5 mg/kg/injection, schedule: Q01DX015 (ip), vehicle: carboxymethylcellulose (CMC)
  T/C: 109 % of control
endpoint: survival time, mean or median, dose: 6.0 mg/kg/injection, schedule: Q01DX015 (ip), vehicle: carboxymethylcellulose (CMC)
  T/C: 182 % of control
endpoint: survival time, mean or median, dose: 9.0 mg/kg/injection, schedule: Q01DX015 (ip), vehicle: carboxymethylcellulose (CMC)
  T/C: 176 % of control

## O=c1[nH]cc(F)c(=O)[nH]1
endpoint: median survival time, dose: 80.0 mg/kg/injection, schedule: Q04DX003 (ip), vehicle: saline
  T/C: 118 % of control
[1]
  T/C: 150 % of control
endpoint: survival time, mean or median, dose: 5.0 mg/kg/injection, schedule: Q01DX015 (ip), vehicle: carboxymethylcellulose (CMC)
  T/C: 162 % of control
[2]
  T/C: 194 % of control and 150 % of control
endpoint: survival time, mean or median, dose: 10.0 mg/kg/injection, schedule: Q01DX015 (ip), vehicle: carboxymethylcellulose (CMC)
  T/C: 174 % of control
endpoint: survival time, mean or median, dose: 15.0 mg/kg/injection, schedule: Q01DX015 (ip), vehicle: carboxymethylcellulose (CMC)
  T/C: 199 % of control and 174 % of control
endpoint: survival time, mean or median, dose: 20.0 mg/kg/injection, schedule: Q01DX010 (ip), vehicle: saline
  T/C: 195 % of control and 216 % of control
endpoint: survival time, mean or median, dose: 20.0 mg/kg/injection, schedule: Q01DX015 (ip), vehicle: carboxymethylcellulose (CMC)
  T/C: 189 % of control
endpoint: survival time, mean or median, dose: 40.0 mg/kg/injection, schedule: Q01DX010 (ip), vehicle: saline
  T/C: 95 % of control and 111 % of control
